Here are results for three compounds from ChEMBL document CHEMBL1177848, “Synthesis of novel 6,6a,7,8-tetrahydro-5H-naphtho[1,2-e]pyrimido[4,5-b][1,4]diazepines under microwave irradiation as potential anti-tumor agents” (2010).

One experiment relates to HOP-62. In words: Growth inhibition of human HOP62 cells after 48 hrs by sulforhodamine B assay. It is filed as functional. The following applies: HOP-62, 48 h. A general note: In SRB staining, fixed cells bind dye roughly in proportion to their protein.
The next experiment deals with NCI-H322M. In words: Growth inhibition of human […] cells after 48 hrs by sulforhodamine B assay. It is filed as functional.
Experiment [1] has as its system HT-29. In words: Growth inhibition of human HT-29 cells after 48 hrs by sulforhodamine B assay. The class given is functional. The note with it: HT-29, 48 h; for CC50: read-out: LC50 (the source's name).
For another experiment, the system named is HCC 2998. In words: Growth inhibition of human HCC2998 cells after 48 hrs by sulforhodamine B assay. It is filed as functional. The following applies: HCC 2998, 48 h.
Another experiment has as its system SF-539. In words: Growth inhibition of human SF539 cells after 48 hrs by sulforhodamine B assay. The class given is functional. The note with it: SF-539, 48 h; for CC50: read-out: LC50 (the source's name).
The next experiment deals with SK-MEL-2. In words: Growth inhibition of human SK-MEL-2 cells after 48 hrs by sulforhodamine B assay. It is filed as functional. The note with it: SK-MEL-2, 48 h.
Another experiment concerns OVCAR-8. In words: Growth inhibition of human OVCAR8 cells after 48 hrs by sulforhodamine B assay. The following applies: OVCAR-8, 48 h. It is filed as functional.
Another experiment relates to 786-0. Nature of the experiment: Growth inhibition of human 786-0 cells after 48 hrs by sulforhodamine B assay. The class given is functional. The following applies: 786-0, 48 h.
The next experiment deals with DU-145. In words: Growth inhibition of human DU145 cells after 48 hrs by sulforhodamine B assay. The class given is functional. The following applies: DU-145, 48 h.
Experiment [2] concerns HT-29. In words: Growth inhibition of human HT-29 cells at 1 uM after 48 hrs by sulforhodamine B assay. It is filed as functional, cell-based.
A further experiment relates to SW-620. In words: Growth inhibition of human SW620 cells at 1 uM after 48 hrs by sulforhodamine B assay. It is filed as functional, cell-based.
A further experiment has as its system SN12C. Nature of the experiment: Growth inhibition of human SN12C cells at 1 uM after 48 hrs by sulforhodamine B assay. It is filed as functional, cell-based.
The test system of another experiment is CCRF-CEM. In words: Growth inhibition of human CCRF-CEM cells after 48 hrs by sulforhodamine B assay. It is filed as functional.
The next experiment concerns HL-60. Nature of the experiment: Growth inhibition of human HL-60(TB) cells after 48 hrs by sulforhodamine B assay. The note with it: HL-60, 48 h. It is filed as functional.
The subject of the next experiment is K562. Nature of the experiment: Growth inhibition of human K562 cells after 48 hrs by sulforhodamine B assay. It is filed as functional. The following applies: K562, 48 h.
A further experiment deals with MOLT-4. In words: Growth inhibition of human MOLT4 cells after 48 hrs by sulforhodamine B assay. The class given is functional. The following applies: MOLT-4, 48 h.
The next experiment deals with A549. Nature of the experiment: Growth inhibition of human A549 cells after 48 hrs by sulforhodamine B assay. The class given is functional. The note with it: A549, 48 h.
For another experiment, the system named is SF-268. Nature of the experiment: Growth inhibition of human SF268 cells after 48 hrs by sulforhodamine B assay. The following applies: SF-268, 48 h. It is filed as functional.
Experiment [3] in a line: Growth inhibition of human SF530 cells after 48 hrs by sulforhodamine B assay. The class given is functional. The following applies: SF530, 48 h.
Another experiment relates to SNB-75. In words: Growth inhibition of human SNB75 cells after 48 hrs by sulforhodamine B assay. The class given is functional. The following applies: SNB-75, 48 h.
The next experiment relates to M14. Nature of the experiment: Growth inhibition of human M14 cells after 48 hrs by sulforhodamine B assay. The class given is functional. The following applies: M14, 48 h.
A further experiment deals with SK-MEL-28. In words: Growth inhibition of human SK-MEL-28 cells after 48 hrs by sulforhodamine B assay. The class given is functional. The note with it: SK-MEL-28, 48 h.
The next experiment relates to Hs-578T. Nature of the experiment: Growth inhibition of human Hs 578T cells after 48 hrs by sulforhodamine B assay. The class given is functional.
[4] abbreviates: read-out: LC50 (the source's name).

A word on the GI50: it is the concentration at which growth is held to half of that of the control. Low values mean greater sensitivity of the cells, high ones lower sensitivity of the cells. Usually LC50 stands for the concentration that kills 50% of the test population. A low value points to greater toxicity.

Each structure is given as a SMILES string. The source made the active and inactive calls. The calls are words filed in the database; no cut-off is given here. Bounds are passed on as bounds.

In the case of `Nc1nc(N)c2c(n1)NC(c1ccc(F)cc1)C1CCc3ccccc3C1=N2` (configuration not stated), the concentration for 50% growth inhibition (GI50) was determined as 6 µM in the experiment with HOP-62; 9.63 µM in the experiment on NCI-H322M; 3.84 µM in the experiment with HT-29 [1]; 2.44 µM in the experiment on HCC 2998; 1.71 µM in the experiment with SF-539; 5.73 µM in the experiment on SK-MEL-2. The GI50 was found to be 8.07 µM with OVCAR-8, 6.9 µM in the experiment on 786-0 and 7.45 µM in the experiment on DU-145. For the same compound, the LC50 (concentration killing 50% of cells) worked out at 51.6 µM in the experiment on HOP-62, 24.3 µM with HCC 2998 and 80.7 µM in the experiment on OVCAR-8. Further, the CC50 worked out at 48 µM in the experiment with NCI-H322M (setting [4]), 38.7 µM in the experiment with HT-29 [1] and 32 µM in the experiment on SF-539. In the experiment with SK-MEL-2, this compound gave an LC50 of 50.2 µM. Further, the LC50 (50% lethal concentration) in the experiment on 786-0 was 47.8 µM; in the experiment with DU-145, 44.5 µM. Also, the “growth inhibition (GI)” value in the experiment on HT-29 [2], in the experiment on SW-620 and in the experiment on SN12C was “inactive” in each case.

With `Nc1nc(N)c2c(n1)NC(c1ccc(Cl)cc1)C1CCc3ccccc3C1=N2` (configuration not stated), the GI50 was found to be 4.31 µM in the experiment with HT-29 [1] and 6.17 µM in the experiment on SF-539. For the same compound, the CC50 in the experiment with HT-29 [1] turned out to be 52.6 µM; in the experiment on SF-539 it was 44.3 µM. The “growth inhibition (GI)” value in the experiment with HT-29 [2], in the experiment on SW-620 and with SN12C was “inactive” throughout.

As to `Nc1nc(N)c2c(n1)NC(c1ccccc1)C1CCc3ccccc3C1=N2` (configuration not stated), the GI50 in the experiment with CCRF-CEM was 4.47 µM; in the experiment with HL-60, 2.37 µM; with K562, 3.42 µM; in the experiment on MOLT-4, 2.7 µM; in the experiment on HOP-62, 7.87 µM; in the experiment on A549 it was 7.11 µM. Besides, the GI50 was 3.66 µM in the experiment with HT-29 [1]; 3.82 µM in the experiment on HCC 2998; 6.96 µM in the experiment on SF-268; 5.81 µM in [3]; 7.95 µM in the experiment with SNB-75; 3.48 µM in the experiment on SK-MEL-2. In addition, the GI50 turned out to be 4.88 µM with M14; 7.72 µM in the experiment on SK-MEL-28; 4.71 µM in the experiment with OVCAR-8; 5.99 µM in the experiment with 786-0; 4.38 µM with DU-145; 5.85 µM in the experiment on Hs-578T. For the same compound, the CC50 in the experiment with CCRF-CEM (setting [4]) is over 100 µM; in the experiment on HL-60 (setting [4]), over 100 µM; in the experiment on K562 (setting [4]) it was over 100 µM; in the experiment on MOLT-4 (setting [4]) it was over 100 µM; in the experiment with A549 (setting [4]), 82.2 µM; with HT-29 [1], 38 µM. The CC50 with SF-268 (setting [4]) was 45.7 µM; in experiment [3] (setting [4]) it was 43.7 µM; with SNB-75 (setting [4]) it was 45.6 µM; in the experiment with M14 (setting [4]), 44.2 µM; with SK-MEL-28 (setting [4]), 45.1 µM; in the experiment on Hs-578T (setting [4]) it was over 100 µM. Besides, the figures for the LC50 (concentration killing 50% of cells) with HOP-62, in the experiment on HCC 2998 and with OVCAR-8 were 49.7 µM, 41.2 µM and over 100 µM, respectively. This compound returned an LC50 with SK-MEL-2 of 43.6 µM. Besides, the LC50 (50% lethal concentration) was 45.7 µM with 786-0 and 42.1 µM with DU-145. Besides, the “growth inhibition (GI)” value with HT-29 [2], in the experiment with SW-620 and in the experiment on SN12C was “inactive” in each case.
